Values joined by “and” are separate entries in the source; they are usually repeats but may differ in a detail not shown here. Equal entries are not always repeated. Toxic doses and inconclusive results are not listed. No stated cut-off is given here; in the data, active means T/C of 150% or more; inactive means T/C below 125%.
System: L1210 leukemia ip in BDF1 mice, survival T/C
Assay: NCI In Vivo Anticancer Drug Screen. Data for tumor model L1210 Leukemia (intraperitoneal) in B6D2F1 (BDF1) mice
Conditions: endpoint: mean survival time, higher = longer survival
In short: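 Tumor was transplanted into mice, which were then dosed with test compound or vehicle alone. Survival was recorded for each group, and the treated figure was expressed relative to the control figure.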

[1] = dose: 100.0 mg/kg/injection, schedule: Q01DX001 (ip), vehicle: saline
[2] = dose: 200.0 mg/kg/injection, schedule: Q01DX001 (ip), vehicle: saline
[3] = dose: 400.0 mg/kg/injection, schedule: Q01DX001 (ip), vehicle: saline
[4] = dose: 100.0 mg/kg/injection, schedule: Q01DX001 (ip), vehicle: other
[5] = dose: 200.0 mg/kg/injection, schedule: Q01DX001 (ip), vehicle: other
[6] = dose: 400.0 mg/kg/injection, schedule: Q01DX001 (ip), vehicle: other
[7] = dose: 100.0 mg/kg/injection, schedule: Q01DX009 (ip), vehicle: saline with Tween-80
[8] = dose: 200.0 mg/kg/injection, schedule: Q01DX009 (ip), vehicle: saline with Tween-80
[9] = dose: 100.0 mg/kg/injection, schedule: Q04DX003 (ip), vehicle: saline with Tween-80
[10] = dose: 200.0 mg/kg/injection, schedule: Q04DX003 (ip), vehicle: saline with Tween-80
[11] = dose: 400.0 mg/kg/injection, schedule: Q01DX009 (ip), vehicle: saline with Tween-80
[12] = dose: 400.0 mg/kg/injection, schedule: Q04DX003 (ip), vehicle: saline with Tween-80
[13] = dose: 100.0 mg/kg/injection, schedule: Q04DX002 (ip), vehicle: Klucel (hydroxypropylcellulose) (HPC)
[14] = dose: 200.0 mg/kg/injection, schedule: Q04DX002 (ip), vehicle: Klucel (hydroxypropylcellulose) (HPC)
[15] = dose: 400.0 mg/kg/injection, schedule: Q04DX002 (ip), vehicle: Klucel (hydroxypropylcellulose) (HPC)
[16] = dose: 100.0 mg/kg/injection, schedule: Q01DX009 (ip), vehicle: saline
[17] = dose: 100.0 mg/kg/injection, schedule: Q04DX003 (ip), vehicle: saline
[18] = dose: 200.0 mg/kg/injection, schedule: Q01DX009 (ip), vehicle: saline
[19] = dose: 200.0 mg/kg/injection, schedule: Q04DX003 (ip), vehicle: saline
[20] = dose: 400.0 mg/kg/injection, schedule: Q01DX009 (ip), vehicle: saline
[21] = dose: 400.0 mg/kg/injection, schedule: Q04DX003 (ip), vehicle: saline
[22] = dose: 50.0 mg/kg/injection, schedule: Q01DX009 (ip), vehicle: Klucel (hydroxypropylcellulose) (HPC)
[23] = dose: 100.0 mg/kg/injection, schedule: Q01DX009 (ip), vehicle: Klucel (hydroxypropylcellulose) (HPC)
[24] = dose: 200.0 mg/kg/injection, schedule: Q01DX009 (ip), vehicle: Klucel (hydroxypropylcellulose) (HPC)
[25] = dose: 100.0 mg/kg/injection, schedule: Q01DX001 (ip), vehicle: carboxymethylcellulose (CMC)
[26] = dose: 200.0 mg/kg/injection, schedule: Q01DX001 (ip), vehicle: carboxymethylcellulose (CMC)
[27] = dose: 400.0 mg/kg/injection, schedule: Q01DX001 (ip), vehicle: carboxymethylcellulose (CMC)
[28] = dose: 400.0 mg/kg/injection, schedule: Q01DX009 (ip), vehicle: Klucel (hydroxypropylcellulose) (HPC)
[29] = dose: 100.0 mg/kg/injection, schedule: Q04DX003 (ip), vehicle: Klucel (hydroxypropylcellulose) (HPC)
[30] = dose: 200.0 mg/kg/injection, schedule: Q04DX003 (ip), vehicle: Klucel (hydroxypropylcellulose) (HPC)

Measured: T/C

N#CCC1(O)c2ccccc2-c2ccccc21
inactive: dose: 50.0 mg/kg/injection, schedule: Q01DX001 (ip), vehicle: saline 98 % of control | [1] 98 % of control | [2] 102 % of control | [3] 96 % of control

CCOC(=O)C1C(=O)CC2c3nc4ccccc4cc3CN2C1=O (centres undefined)
inactive: dose: 75.0 mg/kg/injection, schedule: Q01DX001 (ip), vehicle: saline 97 % of control | dose: 150.0 mg/kg/injection, schedule: Q01DX001 (ip), vehicle: saline 114 % of control

Oc1c(Cl)cc(Cl)cc1C=Nc1ccc(Br)cn1
inactive: [4] 95 % of control | [5] 101 % of control | [6] 95 % of control

Nc1nc2nc3c(nc2c(=O)[nH]1)CN(c1ccc(C(=O)NC(CCC(=O)O)C(=O)O)cc1)C3=O (centres undefined)
inactive: [7] 93 % of control | [8] 95 % of control

CCOC(=O)N1Cc2cc3cc(OC)c(OC)cc3nc2C1
inactive: [7] 109 % of control | [9] 106 % of control | [8] 94 % of control | [10] 97 % of control | [11] 108 % of control | [12] 96 % of control

CC1=[N+]([O-])[N+]([O-])=C(c2ccccc2)C1=O
inactive: [13] 100 % of control | [14] 95 % of control | [15] 87 % of control

CCC(C)(CC(=O)O)CC(=O)O
inactive: [16] 107 % of control | [17] 93 % of control | [18] 93 % of control | [19] 90 % of control | [20] 96 % of control | [21] 92 % of control

C=CCc1ccccc1OCC(=O)O
inactive: [13] 91 % of control | [14] 95 % of control | [15] 104 % of control

CCCC(NC(=O)CCl)C(=O)O (centres undefined)
inactive: [17] 96 % of control | [19] 101 % of control

C[N+]1=C2CCCCC2=C(N)CC1
inactive: dose: 6.25 mg/kg/injection, schedule: Q01DX009 (ip), vehicle: saline sonified 106 % of control | dose: 12.5 mg/kg/injection, schedule: Q01DX009 (ip), vehicle: saline sonified 92 % of control | dose: 25.0 mg/kg/injection, schedule: Q01DX009 (ip), vehicle: saline sonified 92 % of control

CCCN(CCC)[N+](=O)[O-]
inactive: [4] 98 % of control | dose: 100.0 mg/kg/injection, schedule: Q04DX003 (ip), vehicle: other 104 % of control | [5] 93 % of control | dose: 200.0 mg/kg/injection, schedule: Q04DX003 (ip), vehicle: other 101 % of control | [6] 97 % of control | dose: 400.0 mg/kg/injection, schedule: Q04DX003 (ip), vehicle: other 98 % of control

NC(=O)NC(=O)/C=C\C(=O)O
inactive: [22] 93 % of control | [23] 98 % of control | [24] 91 % of control

CC(=O)Nc1cc(C)cc(C)n1
inactive: dose: 87.5 mg/kg/injection, schedule: Q01DX009 (ip), vehicle: saline with Tween-80 113 % of control | dose: 175.0 mg/kg/injection, schedule: Q01DX009 (ip), vehicle: saline with Tween-80 102 % of control

Nc1ccc(S(=O)(=O)CCCl)cc1
inactive: [13] 89 % of control | [14] 100 % of control | [15] 100 % of control

CC(=O)N\C(N)=N/N=C\C(C)=N/N=C(\N)NC(C)=O
inactive: dose: 15.0 mg/kg/injection, schedule: Q01DX Z (ip), vehicle: carboxymethylcellulose (CMC) 94 % of control | dose: 30.0 mg/kg/injection, schedule: Q01DX Z (ip), vehicle: carboxymethylcellulose (CMC) 94 % of control | dose: 60.0 mg/kg/injection, schedule: Q01DX Z (ip), vehicle: carboxymethylcellulose (CMC) 97 % of control and 100 % of control | dose: 120.0 mg/kg/injection, schedule: Q01DX Z (ip), vehicle: carboxymethylcellulose (CMC) 94 % of control and 102 % of control | dose: 240.0 mg/kg/injection, schedule: Q01DX Z (ip), vehicle: carboxymethylcellulose (CMC) 109 % of control

COc1ccc2nc3cc(Cl)ccc3c(Nc3ccc(O)cc3)c2c1
inactive: [7] 91 % of control | [8] 86 % of control

O=c1[nH]c2ccccc2c2ccc([N+](=O)[O-])cc12
inactive: [25] 95 % of control | [26] 106 % of control | [27] 93 % of control

C#CC1(OC(N)=O)CCCCC1
inactive: [23] 98 % of control | [24] 91 % of control | [28] 98 % of control

CN(C)CCCCN(C)CCCN(C)C
inactive: [1] 114 % of control | [2] 102 % of control | [3] 98 % of control

CN=NC(OC(C)=O)(c1ccccc1)c1ccccc1
inactive: dose: 100.0 mg/kg/injection, schedule: Q01DX001 (ip), vehicle: Klucel (hydroxypropylcellulose) (HPC) 101 % of control | [23] 100 % of control | [29] 108 % of control | dose: 200.0 mg/kg/injection, schedule: Q01DX001 (ip), vehicle: Klucel (hydroxypropylcellulose) (HPC) 95 % of control | [24] 97 % of control | [30] 103 % of control | dose: 400.0 mg/kg/injection, schedule: Q01DX001 (ip), vehicle: Klucel (hydroxypropylcellulose) (HPC) 94 % of control | [28] 105 % of control | dose: 400.0 mg/kg/injection, schedule: Q04DX003 (ip), vehicle: Klucel (hydroxypropylcellulose) (HPC) 101 % of control

CCCCOC(=O)C1OC1(C)c1ccc(C)cc1 (centres undefined)
inactive: [7] 103 % of control | [8] 113 % of control | [11] 100 % of control

CCCCCCCCCCCCCCNCCCCCCCCCCCCCC
inactive: [22] 95 % of control | dose: 50.0 mg/kg/injection, schedule: Q04DX003 (ip), vehicle: Klucel (hydroxypropylcellulose) (HPC) 105 % of control | [23] 101 % of control | [29] 101 % of control | [30] 95 % of control

Cc1ccccc1SC(=O)Nc1cc([N+](=O)[O-])ccc1Cl
inactive: [25] 94 % of control and 90 % of control | dose: 100.0 mg/kg/injection, schedule: Q01DX009 (ip), vehicle: carboxymethylcellulose (CMC) 96 % of control | dose: 100.0 mg/kg/injection, schedule: Q04DX002 (ip), vehicle: carboxymethylcellulose (CMC) 97 % of control and 99 % of control | dose: 100.0 mg/kg/injection, schedule: Q04DX003 (ip), vehicle: carboxymethylcellulose (CMC) 89 % of control | [26] 94 % of control and 88 % of control | dose: 200.0 mg/kg/injection, schedule: Q01DX009 (ip), vehicle: carboxymethylcellulose (CMC) 98 % of control | dose: 200.0 mg/kg/injection, schedule: Q04DX002 (ip), vehicle: carboxymethylcellulose (CMC) 94 % of control and 101 % of control | dose: 200.0 mg/kg/injection, schedule: Q04DX003 (ip), vehicle: carboxymethylcellulose (CMC) 96 % of control and 91 % of control | [27] 97 % of control and 90 % of control | dose: 400.0 mg/kg/injection, schedule: Q01DX009 (ip), vehicle: carboxymethylcellulose (CMC) 94 % of control | dose: 400.0 mg/kg/injection, schedule: Q04DX002 (ip), vehicle: carboxymethylcellulose (CMC) 95 % of control and 101 % of control | dose: 400.0 mg/kg/injection, schedule: Q04DX003 (ip), vehicle: carboxymethylcellulose (CMC) 96 % of control and 92 % of control

C(#CCN1CCOCC1)CCCN1CCOCC1
inactive: [17] 96 % of control | [19] 95 % of control | [21] 93 % of control

CC1CCCC(C)N1 (centres undefined)
inactive: dose: 50.0 mg/kg/injection, schedule: Q01DX009 (ip), vehicle: saline 94 % of control | [16] 96 % of control and 100 % of control | [17] 110 % of control and 102 % of control | [18] 94 % of control and 106 % of control | [19] 102 % of control and 94 % of control | [20] 95 % of control | [21] 87 % of control

c1ccc(C2=NNC(c3ccccn3)=NN2)nc1
inactive: [9] 96 % of control | [10] 96 % of control | [12] 102 % of control

CC(C)[N+](C(C)C)(C(C)C)C(C)C.[I][Pb]([I])([I])[I]
inactive: [9] 95 % of control | [10] 98 % of control | [12] 93 % of control

Source: PubChem BioAssay AID248 (DTP/NCI, 2004)
